Results published in PMC11040104, “The two C. elegans class VI myosins, SPE-15/HUM-3 and HUM-8, share similar motor properties, but have distinct developmental and tissue expression patterns” (Frontiers in Physiology, 2024).

How the values were obtained:
SPE-15/HUM-3 [1] = target: T1, SPE-15/HUM-3 (Caenorhabditis elegans, UniProt Q9TZI9); experiment: stopped-flow pyrene-actin, ADP/ATP competition; format: binding; settings: bound to pyrene-labelled rabbit F-actin; competition with ATP; pH 7.0, 20 °C, 25 mM KCl, 5 mM MgCl2, probably misprint for µM; read-out: affinity for ADP
T1 construct: motor-neck domain residues 1-841, N-terminal 6xHis, C-terminal GSG linker + RGSIDTWV tag kept; co-expressed with human calmodulin in ExpiSf9; with Actin, alpha skeletal muscle (rabbit, Oryctolagus cuniculus); Calmodulin (human light chain, co-expressed)

HUM-8 [2] = target: T2, HUM-8 (Caenorhabditis elegans, UniProt U4PBY2); experiment: stopped-flow pyrene-actin, ADP/ATP competition; format: binding; settings: bound to pyrene-labelled rabbit F-actin; competition with ATP; pH 7.0, 20 °C, 25 mM KCl, 5 mM MgCl2, probably misprint for µM; read-out: affinity for ADP
T2 construct: motor-neck domain residues 61-904, N-terminal 6xHis, C-terminal GSG linker + RGSIDTWV tag kept; co-expressed with human calmodulin in ExpiSf9; with Actin, alpha skeletal muscle (rabbit, Oryctolagus cuniculus); Calmodulin (human light chain, co-expressed)
T2 sequence (U4PBY2 61-904): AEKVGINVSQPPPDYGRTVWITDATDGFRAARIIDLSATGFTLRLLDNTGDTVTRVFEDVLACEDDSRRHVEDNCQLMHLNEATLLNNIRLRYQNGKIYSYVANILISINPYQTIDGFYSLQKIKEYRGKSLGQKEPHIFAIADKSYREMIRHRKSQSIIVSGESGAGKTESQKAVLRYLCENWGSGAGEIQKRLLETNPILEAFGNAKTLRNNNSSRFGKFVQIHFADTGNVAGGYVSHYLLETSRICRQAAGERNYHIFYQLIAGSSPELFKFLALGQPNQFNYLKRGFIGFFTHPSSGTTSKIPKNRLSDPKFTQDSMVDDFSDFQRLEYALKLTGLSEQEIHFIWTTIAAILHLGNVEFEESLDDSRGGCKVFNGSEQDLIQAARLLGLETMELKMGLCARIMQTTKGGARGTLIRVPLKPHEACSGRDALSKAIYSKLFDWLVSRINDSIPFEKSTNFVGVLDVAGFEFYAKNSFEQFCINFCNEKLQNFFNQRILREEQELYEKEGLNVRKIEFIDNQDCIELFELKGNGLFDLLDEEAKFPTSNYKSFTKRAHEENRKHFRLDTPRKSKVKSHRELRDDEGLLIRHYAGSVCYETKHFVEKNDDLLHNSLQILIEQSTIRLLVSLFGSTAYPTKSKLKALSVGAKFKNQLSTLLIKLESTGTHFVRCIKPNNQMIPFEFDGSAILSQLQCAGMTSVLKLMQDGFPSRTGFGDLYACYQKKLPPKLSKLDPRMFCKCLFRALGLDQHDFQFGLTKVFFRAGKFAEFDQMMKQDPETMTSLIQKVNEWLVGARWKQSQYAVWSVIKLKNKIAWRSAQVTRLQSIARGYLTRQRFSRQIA

human MYO6 [3] = target: T3, human MYO6 (Homo sapiens, UniProt Q9UM54); experiment: stopped-flow pyrene-actin, ADP/ATP competition; format: binding; settings: bound to pyrene-labelled rabbit F-actin; competition with ATP; pH 7.0, 20 °C, 25 mM KCl, 5 mM MgCl2, probably misprint for µM; read-out: affinity for ADP
T3 construct: with Actin, alpha skeletal muscle (rabbit, Oryctolagus cuniculus); Calmodulin (light chain)

human MYO6 [4] = target: T3, human MYO6; experiment: stopped-flow, ATP-induced dissociation of pyrene-actin.myosin; format: binding; settings: bound to pyrene-labelled rabbit F-actin, pH 7.0, 20 °C, 25 mM KCl, 5 mM MgCl2, not an affinity
SPE-15/HUM-3 [5] = target: T1, SPE-15/HUM-3; experiment: as above; format: binding; settings: bound to pyrene-labelled rabbit F-actin, pH 7.0, 20 °C, 25 mM KCl, 5 mM MgCl2, not an affinity
HUM-8 [6] = target: T2, HUM-8; experiment: as above; format: binding; settings: bound to pyrene-labelled rabbit F-actin, pH 7.0, 20 °C, 25 mM KCl, 5 mM MgCl2, not an affinity
[7] = target: rabbit muscle actin, pyrene-labelled (F-actin) (rabbit) (UniProt P68135); experiment: other fluorescence titration; stopped-flow; amplitude of ATP-induced dissociation of pyrene-actin.myosin against myosin concentration, quadratic fit; 20°C, 20 mM MOPS pH 7.0, 25 mM KCl, 5 mM MgCl2, 1 mM DTT
[8] = target: rabbit muscle actin, pyrene-labelled (F-actin) (rabbit) (UniProt P68135)

Sequence of human MYO6 motor domain (Q9UM54 whole entry, the tested form may be a part): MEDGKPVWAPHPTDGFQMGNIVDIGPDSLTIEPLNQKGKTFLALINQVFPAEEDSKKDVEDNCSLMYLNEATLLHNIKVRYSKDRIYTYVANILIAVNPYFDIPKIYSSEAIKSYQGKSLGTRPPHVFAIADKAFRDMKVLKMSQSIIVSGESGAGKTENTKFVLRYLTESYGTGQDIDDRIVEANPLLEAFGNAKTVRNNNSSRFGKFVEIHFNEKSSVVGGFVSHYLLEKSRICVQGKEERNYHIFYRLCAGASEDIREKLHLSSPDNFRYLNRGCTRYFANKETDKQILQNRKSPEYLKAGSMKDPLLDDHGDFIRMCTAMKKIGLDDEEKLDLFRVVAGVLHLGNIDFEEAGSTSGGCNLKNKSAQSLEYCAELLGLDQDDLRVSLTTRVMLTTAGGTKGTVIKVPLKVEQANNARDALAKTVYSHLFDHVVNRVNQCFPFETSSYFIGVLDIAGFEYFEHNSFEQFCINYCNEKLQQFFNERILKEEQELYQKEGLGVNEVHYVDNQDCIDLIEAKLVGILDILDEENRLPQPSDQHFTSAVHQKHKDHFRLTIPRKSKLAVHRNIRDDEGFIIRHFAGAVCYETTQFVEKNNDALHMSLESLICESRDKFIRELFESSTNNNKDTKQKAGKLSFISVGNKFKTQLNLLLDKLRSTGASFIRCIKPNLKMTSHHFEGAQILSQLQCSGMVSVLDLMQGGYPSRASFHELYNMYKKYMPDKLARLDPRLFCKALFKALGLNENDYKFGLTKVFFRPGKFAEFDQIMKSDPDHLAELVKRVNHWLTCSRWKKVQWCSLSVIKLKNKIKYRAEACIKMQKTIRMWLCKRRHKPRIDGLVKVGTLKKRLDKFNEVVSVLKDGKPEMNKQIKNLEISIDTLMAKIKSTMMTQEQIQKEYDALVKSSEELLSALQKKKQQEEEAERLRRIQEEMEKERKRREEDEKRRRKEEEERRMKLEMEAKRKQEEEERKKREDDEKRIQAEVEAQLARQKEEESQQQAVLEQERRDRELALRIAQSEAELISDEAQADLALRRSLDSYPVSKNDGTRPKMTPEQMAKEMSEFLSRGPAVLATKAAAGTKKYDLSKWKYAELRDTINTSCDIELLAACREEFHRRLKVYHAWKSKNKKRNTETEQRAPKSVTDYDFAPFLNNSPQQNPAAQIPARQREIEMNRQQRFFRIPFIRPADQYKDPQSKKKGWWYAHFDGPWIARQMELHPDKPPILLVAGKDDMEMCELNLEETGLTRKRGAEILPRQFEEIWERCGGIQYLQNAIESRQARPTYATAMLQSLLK
T1 sequence (Q9TZI9 1-841): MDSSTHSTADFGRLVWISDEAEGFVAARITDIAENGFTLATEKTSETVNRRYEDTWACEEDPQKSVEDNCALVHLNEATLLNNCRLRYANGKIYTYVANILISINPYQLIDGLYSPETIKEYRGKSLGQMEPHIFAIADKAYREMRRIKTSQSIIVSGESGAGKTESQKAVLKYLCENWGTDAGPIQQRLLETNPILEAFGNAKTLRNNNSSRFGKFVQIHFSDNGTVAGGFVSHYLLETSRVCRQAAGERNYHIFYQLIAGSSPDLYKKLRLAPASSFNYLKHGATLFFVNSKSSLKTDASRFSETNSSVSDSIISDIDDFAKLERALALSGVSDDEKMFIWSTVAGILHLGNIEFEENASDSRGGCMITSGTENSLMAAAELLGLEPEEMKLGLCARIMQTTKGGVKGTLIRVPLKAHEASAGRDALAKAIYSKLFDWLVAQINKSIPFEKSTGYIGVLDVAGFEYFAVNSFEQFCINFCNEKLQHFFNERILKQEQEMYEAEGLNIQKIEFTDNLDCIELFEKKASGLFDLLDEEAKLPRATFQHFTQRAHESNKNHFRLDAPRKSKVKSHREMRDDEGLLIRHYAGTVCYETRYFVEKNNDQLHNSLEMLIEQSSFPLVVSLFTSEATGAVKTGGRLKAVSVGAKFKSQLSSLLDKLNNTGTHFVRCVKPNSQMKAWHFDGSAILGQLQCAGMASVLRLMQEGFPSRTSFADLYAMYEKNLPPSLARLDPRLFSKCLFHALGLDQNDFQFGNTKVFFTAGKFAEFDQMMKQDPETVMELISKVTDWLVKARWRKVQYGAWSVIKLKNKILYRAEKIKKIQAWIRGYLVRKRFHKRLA
T3 sequence (Q9UM54 1-840 limits assumed): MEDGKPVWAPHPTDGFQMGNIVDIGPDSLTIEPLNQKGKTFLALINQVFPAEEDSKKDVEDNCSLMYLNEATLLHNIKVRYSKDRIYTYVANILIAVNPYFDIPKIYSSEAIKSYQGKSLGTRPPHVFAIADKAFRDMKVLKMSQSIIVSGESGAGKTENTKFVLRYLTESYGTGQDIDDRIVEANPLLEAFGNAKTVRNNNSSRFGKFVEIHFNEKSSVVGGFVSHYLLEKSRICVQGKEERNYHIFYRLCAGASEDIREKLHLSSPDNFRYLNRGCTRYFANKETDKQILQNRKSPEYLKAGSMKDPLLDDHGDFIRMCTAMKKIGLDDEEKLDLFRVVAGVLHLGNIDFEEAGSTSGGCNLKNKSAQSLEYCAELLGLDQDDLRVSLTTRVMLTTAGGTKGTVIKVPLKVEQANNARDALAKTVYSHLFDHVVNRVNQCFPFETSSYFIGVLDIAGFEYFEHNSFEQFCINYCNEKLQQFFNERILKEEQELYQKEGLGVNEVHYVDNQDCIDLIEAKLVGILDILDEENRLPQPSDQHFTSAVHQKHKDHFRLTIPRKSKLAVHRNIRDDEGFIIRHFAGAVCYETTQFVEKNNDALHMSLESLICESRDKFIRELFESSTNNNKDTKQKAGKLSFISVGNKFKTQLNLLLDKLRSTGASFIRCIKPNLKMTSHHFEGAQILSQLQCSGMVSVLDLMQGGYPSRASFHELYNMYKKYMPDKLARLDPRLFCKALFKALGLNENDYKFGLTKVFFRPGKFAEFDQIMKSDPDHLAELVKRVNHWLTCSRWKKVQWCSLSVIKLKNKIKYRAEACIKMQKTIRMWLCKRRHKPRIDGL

Question: Which Kd (SPE-15/HUM-3 [1]) does the source give for `Nc1ncnc2c1ncn2[C@@H]1O[C@H](COP(=O)(O)OP(=O)(O)O)[C@@H](O)[C@H]1O` [ADP] here?
Answer: 18000 ± 4000 µM

Question: And the Kd (HUM-8 [2])?
Answer: 20000 ± 2000 µM

Question: And the Kd (human MYO6 [3])?
Answer: 6000 ± 800 µM

Question: What does the source list for `Nc1ncnc2c1ncn2[C@@H]1O[C@H](COP(=O)(O)OP(=O)(O)OP(=O)(O)O)[C@@H](O)[C@H]1O` [ATP]?
Answer: apparent second order rate constant for ATP binding (human MYO6 [4]): 5000 ± 400 M⁻¹ s⁻¹; apparent second order rate constant for ATP binding (SPE-15/HUM-3 [5]): 9000 ± 800 M⁻¹ s⁻¹; apparent second order rate constant for ATP binding (HUM-8 [6]): 3000 ± 500 M⁻¹ s⁻¹

Question: Which results are given for “human MYO6 motor domain (from UniProt Q9UM54 1-1294) (domain or fragment)”?
Answer: Kd [7]: 15 nM; in vitro motility assay: gliding velocity of rhodamine-phalloidin labelled actin filaments on surface-immobilised myosin [8]: 55 nm/s
